Assay results: the Bradley open melting point set (2014)
Several values for one entry are separate records, joined by “and”; a condition that tells them apart may be missing. Equal values may be shown once.

| Compound | melting point |
| --- | --- |
| O=C(O)CCCCCCCCCCC(=O)O [dodecanedioic acid] | 129 °C |
| COc1cc(C)c(C=CC(C)=CC=CC(C)=CC(=O)O)c(C)c1C [acitretin] | 228 °C |
| C[C@]12CC[C@@H]3c4ccc(O)cc4CC[C@H]3[C@@H]1CC[C@@H]2O [Estradiol] | 176 °C |
| O=C1CN2CCOC2(c2ccccc2F)c2cc(Br)ccc2N1 (centres undefined) [haloxazolam] | 185 °C |
| Nc1nc(=O)c2ncn(COC(CO)CO)c2[nH]1 [Ganciclovir] | 250 °C |
| NCCOB(c1ccccc1)c1ccccc1 [2-aminoethyl diphenylborinate] | 189 °C |
| Cc1ccc(C)c2c1C(=O)NC2=O [4,7-dimethyl-1H-isoindole-1,3(2H)-dione] | 224 °C |
| CC(=O)Nc1ccc(C(C)=O)cc1Br [4'-acetamido-3'-bromoacetophenone] | 140 °C |
| COc1nc(N)nc(SC)n1 [2-amino-4-methoxy-6-(methylthio)-1,3,5-triazine] | 201 °C |
| O=C1C2CC3=C(CC=CC3)CC2C(=O)C2CC3=C(CC=CC3)CC12 (centres undefined) | 227 °C |
| CCCCCCCCCCC#CC#CCCCCCCCCC(=O)O [10,12-tricosadiynoic acid] | 57 °C |
| CCCN(CCC)S(=O)(=O)c1ccc(C(=O)O)cc1 [probenecid] | 198 °C |
| Clc1nsnc1-c1cccnc1 [3-chloro-4-(3-pyridyl)-1,2,5-thiadiazole] | 56 °C |
| CC=1CCCC(C)(C)C=1/C=CC(C)=CC=CC(/C)=CCO [Vitamin A] | 63.5 °C |
| NC1(C(=O)O)CCCC1 [Cycloleucine] | 330 °C |
| CCCCc1ccccc1 [butylbenzene] | -88 °C |
| N#Cc1ccc(C(F)(F)F)cc1[N+](=O)[O-] [2-nitro-4-(trifluoromethyl)benzonitrile] | 42 °C |
| CC(=O)Oc1c(-c2ccccc2)n(C(C)=O)c2cc([N+](=O)[O-])c(/C(Cl)=C/c3ccccc3)cc12 | 58 °C |
| Cc1ccccc1C [o-xylene] | -25 °C |
| CCCCNCCCC [N-Butylbutan-1-amine] | -60 °C |
| CC(C)CCCC(C)C1CCC2C3CC(O)C4(O)CC(O)CCC4(C)C3CCC12C (centres undefined) | 238 °C |
| Cc1cc(C#N)cc(C#N)c1 [5-methylisophthalonitrile] | 164 °C |
| O=C(/C=C/c1ccccc1)c1ccccc1O [2'-hydroxychalcone] | 90 °C |
| C/C=C(\C)C(=O)O [tiglic acid] | 64 °C |
| CCS(=O)(=O)CCO [2-(ethylsulfonyl)ethanol] | 38 °C |

| Compound | melting point |
| --- | --- |
| COc1cc(/C=C/C(=O)CC(=O)/C=C/c2ccc(O)c(OC)c2)ccc1O | 180 °C |
| C=Cc1cccc(O)c1 [m-vinyl_phenol] | 1 °C |
| CC(C)N [isopropylamine] | -101 °C |
| CCCCCCCCCCCCCCCCCCCC(=O)O [arachidic acid] | 75 °C |
| CCCCS [Butane-1-thiol] | -116 °C |
| OCC(O)CO [glycerol] | 18 °C |
| COC1=CC(=O)C[C@@H](C)[C@]12Oc1c(Cl)c(OC)cc(OC)c1C2=O [griseofulvin] | 219 °C |
| C[C@@H]1O[C@H](O)[C@@H](O)[C@H](O)[C@H]1O [Rhamnose] | 122 °C |
| OC(c1ccccc1)(c1ccccc1)c1ccccc1 [Triphenylmethanol] | 163 °C |
| [O-][n+]1onc2ccccc21 [benzofuroxan] | 69 °C |
| O=C(O)c1ccc(F)cc1 [4-fluorobenzoic acid] | 185 °C |
| CCCC(=O)OCC [ethyl_butyrate] | -93 °C |
| O=C(O)[C@@H](O)[C@H](O)C(=O)O [D-tartaric acid] | 168 °C |
| NS(=O)(=O)c1cc2c(cc1C(F)(F)F)NCNS2(=O)=O [hydroflumethiazide] | 272 °C |
| O=C5\C=C3/[C@]([C@H]2CC[C@@]4([C@@H](OC(=O)CCc1ccccc1)CC[C@H]4[C@@H]2CC3)C)(C)CC5 [testosterone phenylpropionate] | 116 °C |
| CCCC#N [butyronitrile] | -112 °C |
| CCCI [1-Iodopropane] | -101 °C |
| Cc1ccc(C)c(O)c1 [2,5-dimethylphenol] | 76 °C |
| C=C[C@H]1C[N@@]2CC[C@H]1C[C@@H]2[C@@H](O)c1ccnc2ccccc12 [(9S)-Cinchonan-9-ol] | 265 °C |
| CC(C)(C)OC(=O)Nc1ccccc1B(O)O [2-(boc-amino)benzeneboronic acid] | 124 °C |
| CC(C)N [2-aminopropane] | -95 °C |
| C=C(CC(=O)O)C(=O)O [itaconic acid] | 167 °C |
| CC(=O)C=C(C)c1ccc(-c2ccccc2)cc1 [Xenipentone] | 133 °C |
| BrBr [Bromine] | -7.2 °C |
| CCCCOC(=O)c1ccc(N)cc1 [Butyl 4-aminobenzoate] | 58 °C |

| Compound | melting point |
| --- | --- |
| Nc1ccncc1N [3,4-diaminopyridine] | 219 °C |
| Nc1ccc(C(=O)O)cc1 [4-aminobenzoic acid] | 188 °C |
| CC1=C(c2ccccc2)c2ccccc2C1=O [2-methyl-3-phenyl-1H-inden-1-one] | 87 °C |
| O=C(O)c1ccc(Cl)cc1Cl [2,4-dichlorobenzoic_acid] | 159 °C |
| Nn1cnnc1 [4-amino-1,2,4-triazole] | 86 °C |
| C=CCCCCCC [1-octene] | -102 °C |
| Nc1ncccc1OCc1ccccc1 [2-amino-3-benzyloxypyridine] | 93 °C |
| CC1COC(=O)O1 (centres undefined) [4-Methyl-1,3-dioxolan-2-one] | -55 °C |
| Fc1ccccc1 [Fluorobenzene] | -40 °C |
| N#CCS(=O)(=O)c1ccc(C(F)(F)F)cc1 [[4-(trifluoromethyl)phenylsulfonyl]acetonitrile] | 144 °C |
| CCCCc1ccccc1 [N-butylbenzene] | -88 °C |
| N#CC1(C#N)C=C(c2ccccc2)c2ccccc21 [3-phenyl-1H-indene-1,1-dicarbonitrile] | 135 °C |
| CCOC(=O)c1[nH]c(C)c(C(C)=O)c1C [3-acetyl-2,4-dimethyl-5-(ethoxycarbonyl)pyrrole] | 142 °C |
| CCCNC(=O)C(C(F)(F)F)C(F)(F)F [propanamide, 3,3,3-trifluoro-N-propyl-2-(trifluoromethyl)-] | 106 °C |
| CCCCCCOC(C)=O [hexyl_acetate] | -80 °C |
| CC(C)(C)c1cc(C(=Nc2ccccc2)Nc2ccccc2)cc(C(C)(C)C)c1O [3,5-Di-tert-butyl-4-hydroxy-N,N'-diphenyl-benzamidine] | 131 °C |
| COC(=O)c1ccccc1 [methyl benzoate] | -12 °C |
| CCCCCCCCC(C)O (centres undefined) [2-decanol] | -2 °C |
| Nc1cc(Cl)ccc1[N+](=O)[O-] [5-chloro-2-nitroaniline] | 126 °C |
| CCC1(c2ccccc2)NC(=O)N(C)C1=O (centres undefined) [mephenytoin] | 135 °C and 136 °C |
| O=[N+]([O-])c1ccccc1Br [o-bromonitrobenzene] | 43 °C |
| COc1ccc(C(=O)Cl)cc1 [4-methoxybenzoyl chloride] | 22 °C |
| COc1ccc(-c2csc(/C(C#N)=C/c3ccc(Cl)cc3Cl)n2)cc1 | 143 °C |
| NNC=O [formic acid hydrazide] | 57 °C |
